Measurements reported in patent publication US9981975B2, “Pyrrolotriazine compounds as tam inhibitors” (Incyte Corporation, priority 2016, dated 2018).
pIC50: −log10 of the molar value.

Columns and labels:
phosphor-Axl = phosphor-Axl (Homo sapiens (Human), UniProt P30530); test: TAM Enzymatic Assay (HTRF), Axl; type: biochemical; details: recombinant autophosphorylated Axl, 60 min, room temperature
Description: Autophosphorylation of Axl was carried out by incubating the recombinant Axl protein (Life Technologies, PV4275) in buffer containing 50 mM Tris, pH7.5, 0.2 mg/ml Axl, 5 mM ATP, 20 mM MgCl2 and 2 mM DTT at room temperature for 1 hour.
(§1) The kinase assay buffer contained 50 mM HEPES, pH7.5, 10 mM MgCl2, 1 mM EGTA, 0.01% NP-40 and 2 mM DTT. 0.1 ul test compounds dissolved in DMSO were transferred from compound plates to white 384-well assay plates (Greiner […] plates). […] 4 ul enzyme solution (or assay buffer for the enzyme blank) was added to the appropriate wells in each plate, and then 4 ul/well substrate solution was added to initiate the reaction. The plate was protected from light and incubated at room temperature for 60 min. […] The plate was incubated for 1 h at room temperature, and HTRF (homogenous time resolved fluorescence) signal was measured on a PHERAstar FS plate reader (BMG labtech). Percentage of inhibition was calculated for each concentration and IC50 value was generated from curve fitting with GraphPad Prism software.

Tyro3 = Tyro3 (Homo sapiens (Human), UniProt Q06418); test: TAM Enzymatic Assay (HTRF), Tyro3; type: biochemical; details: Tyro3, 60 min, room temperature
Sequence of Tyro3 (Q06418 41-890): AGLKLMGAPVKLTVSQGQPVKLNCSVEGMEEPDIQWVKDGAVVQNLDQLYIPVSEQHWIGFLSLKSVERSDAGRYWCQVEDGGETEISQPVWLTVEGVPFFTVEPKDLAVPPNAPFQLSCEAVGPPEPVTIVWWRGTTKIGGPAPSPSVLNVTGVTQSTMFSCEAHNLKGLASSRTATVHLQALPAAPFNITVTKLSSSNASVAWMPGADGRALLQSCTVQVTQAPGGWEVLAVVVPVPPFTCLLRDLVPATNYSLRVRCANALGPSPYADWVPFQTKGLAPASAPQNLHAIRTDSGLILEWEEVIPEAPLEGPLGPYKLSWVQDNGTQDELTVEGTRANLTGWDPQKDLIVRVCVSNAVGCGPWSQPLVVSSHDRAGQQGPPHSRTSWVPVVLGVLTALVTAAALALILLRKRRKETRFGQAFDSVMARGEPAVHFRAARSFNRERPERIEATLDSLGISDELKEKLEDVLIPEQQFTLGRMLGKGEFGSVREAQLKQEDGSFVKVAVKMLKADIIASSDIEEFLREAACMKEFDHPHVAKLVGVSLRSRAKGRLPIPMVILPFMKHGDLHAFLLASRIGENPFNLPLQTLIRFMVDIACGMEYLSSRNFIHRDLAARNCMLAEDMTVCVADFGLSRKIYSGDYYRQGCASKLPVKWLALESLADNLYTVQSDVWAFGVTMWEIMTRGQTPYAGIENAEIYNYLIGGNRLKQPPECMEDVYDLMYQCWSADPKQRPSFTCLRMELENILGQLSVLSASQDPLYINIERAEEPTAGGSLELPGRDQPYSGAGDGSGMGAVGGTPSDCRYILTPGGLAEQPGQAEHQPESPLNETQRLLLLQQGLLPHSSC
Description: as §1

Sequence of phosphor-Axl (P30530 26-894): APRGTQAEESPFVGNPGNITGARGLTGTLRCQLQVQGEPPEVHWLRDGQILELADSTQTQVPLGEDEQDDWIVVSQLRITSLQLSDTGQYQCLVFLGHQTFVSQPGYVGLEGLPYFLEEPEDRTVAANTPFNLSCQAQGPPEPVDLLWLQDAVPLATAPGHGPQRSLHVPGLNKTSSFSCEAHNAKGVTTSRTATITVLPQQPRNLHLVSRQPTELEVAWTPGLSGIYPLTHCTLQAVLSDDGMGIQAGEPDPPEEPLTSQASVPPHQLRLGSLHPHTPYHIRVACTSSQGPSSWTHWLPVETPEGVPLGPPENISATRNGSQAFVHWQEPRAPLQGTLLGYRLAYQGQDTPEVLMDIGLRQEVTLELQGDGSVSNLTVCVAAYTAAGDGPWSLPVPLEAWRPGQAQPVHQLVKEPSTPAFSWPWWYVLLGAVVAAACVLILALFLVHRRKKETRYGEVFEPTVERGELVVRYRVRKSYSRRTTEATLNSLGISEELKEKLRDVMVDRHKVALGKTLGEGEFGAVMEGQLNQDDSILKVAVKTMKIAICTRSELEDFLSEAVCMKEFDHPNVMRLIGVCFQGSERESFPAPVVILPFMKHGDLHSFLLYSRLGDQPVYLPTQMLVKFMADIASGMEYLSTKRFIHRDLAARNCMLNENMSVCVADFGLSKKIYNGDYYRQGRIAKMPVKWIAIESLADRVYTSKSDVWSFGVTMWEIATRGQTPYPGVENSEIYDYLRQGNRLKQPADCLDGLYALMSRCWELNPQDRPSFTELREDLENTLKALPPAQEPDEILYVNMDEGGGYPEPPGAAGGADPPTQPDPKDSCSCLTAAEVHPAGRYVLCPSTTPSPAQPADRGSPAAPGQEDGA

Cc1cc(-n2c(=O)c(C(=O)Nc3ccc(-c4cc(C5CCN(C(=O)C(C)C)CC5)n5ncnc(N)c45)cc3)cn(C(C)C)c2=O)nn1C [Example 148, N-(4-(4-Amino-7-(1-isobutyrylpiperidin-4-yl)pyrrolo[1,2-f][1,2,4]triazin-5-yl)phenyl)-3-(1,5-dimethyl-1H-pyrazol-3-yl)-1-isopropyl-2,4-dioxo-1,2,3,4-tetrahydropyrimidine-5-carboxamide]
pIC50 (phosphor-Axl): ≥ 8.30
pIC50 (Tyro3): < 7.00

CC(C)C(=O)N1CCC(c2cc(-c3ccc(NC(=O)c4cn(C(C)C)c(=O)n(-c5cc(F)ccc5F)c4=O)cc3)c3c(N)ncnn23)CC1 [Example 76, N-(4-(4-Amino-7-(1-isobutyrylpiperidin-4-yl)pyrrolo[1,2-f][1,2,4]triazin-5-yl)phenyl)-3-(2,5-difluorophenyl)-1-isopropyl-2,4-dioxo-1,2,3,4-tetrahydropyrimidine-5-carboxamide]
pIC50 (phosphor-Axl): ≥ 8.30
pIC50 (Tyro3): < 7.00

Cc1c(-c2cnn(C)c2)cc(C(=O)Nc2ccc(-c3cc(C4CCN(C(=O)C(C)C)CC4)n4ncnc(N)c34)cc2)c(=O)n1-c1cccnc1 [Example 133, N-(4-(4-Amino-7-(1-isobutyrylpiperidin-4-yl)pyrrolo[2,1-f][1,2,4]triazin-5-yl)phenyl)-6-methyl-5-(1-methyl-1H-pyrazol-4-yl)-2-oxo-2H-[1,3′-bipyridine]-3-carboxamide]
pIC50 (phosphor-Axl): ≥ 8.30
pIC50 (Tyro3): < 7.00

Cc1cc(C(=O)N(C)C)ncc1-c1cc(-c2ccc(NC(=O)c3cn(C(C)C)c(=O)n(-c4ccccc4)c3=O)cc2)c2c(N)ncnn12 [Example 85, N-(4-(4-amino-7-(6-(dimethylcarbamoyl)-4-methylpyridin-3-yl)pyrrolo[1,2-f][1,2,4]triazin-5-yl)phenyl)-1-isopropyl-2,4-dioxo-3-phenyl-1,2,3,4-tetrahydropyrimidine-5-carboxamide]
pIC50 (phosphor-Axl): ≥ 8.30
pIC50 (Tyro3): < 7.00

CCN(C)C(=O)N1CCC(c2cc(-c3ccc(NC(=O)c4cc5c(n(-c6ccc(F)cc6)c4=O)CCCC5=O)cc3)c3c(N)ncnn23)CC1 [Example 57, N-{4-[4-Amino-7-(1-{[ethyl(methyl)amino]carbonyl}piperidin-4-yl)pyrrolo[2,1-f][1,2,4]triazin-5-yl]phenyl}-1-(4-fluorophenyl)-2,5-dioxo-1,2,5,6,7,8-hexahydroquinoline-3-carboxamide]
pIC50 (phosphor-Axl): ≥ 8.30
pIC50 (Tyro3): < 7.00

CC(C)C(=O)N1CCC(c2cc(-c3ccc(NC(=O)c4cn(C(C)C)cc(-c5cccnc5)c4=O)cc3)c3c(N)ncnn23)CC1 [Example 128, N-(4-(4-Amino-7-(1-isobutyrylpiperidin-4-yl)pyrrolo[1,2-f][1,2,4]triazin-5-yl)phenyl)-1-isopropyl-4-oxo-5-(pyridin-3-yl)-1,4-dihydropyridine-3-carboxamide]
pIC50 (phosphor-Axl): ≥ 8.30
pIC50 (Tyro3): < 7.00

Cc1c(-c2ccnn2C)cc(C(=O)Nc2ccc(-c3cc(C4CCN(C(=O)C(C)C)CC4)n4ncnc(N)c34)cc2)c(=O)n1-c1ccccn1 [Example 123, N-(4-(4-Amino-7-(1-isobutyrylpiperidin-4-yl)pyrrolo[2,1-f][1,2,4]triazin-5-yl)phenyl)-6-methyl-5-(1-methyl-1H-pyrazol-5-yl)-2-oxo-2H-[1,2′-bipyridine]-3-carboxamide]
pIC50 (phosphor-Axl): ≥ 8.30
pIC50 (Tyro3): < 7.00

CC(C)C(=O)N1CCC(c2cc(-c3ccc(NC(=O)c4cn(C5CC5)c(=O)n(-c5ccccn5)c4=O)cc3)c3c(N)ncnn23)CC1 [Example 144, N-(4-(4-Amino-7-(1-isobutyrylpiperidin-4-yl)pyrrolo[1,2-f][1,2,4]triazin-5-yl)phenyl)-1-cyclopropyl-2,4-dioxo-3-(pyridin-2-yl)-1,2,3,4-tetrahydropyrimidine-5-carboxamide]
pIC50 (phosphor-Axl): ≥ 8.30
pIC50 (Tyro3): < 7.00

CCOCc1c(C#N)cc(C(=O)Nc2ccc(-c3cc(C4CCN(C(=O)C(C)C)CC4)n4ncnc(N)c34)cc2)c(=O)n1-c1ccccc1 [Example 137, N-(4-(4-Amino-7-(1-isobutyrylpiperidin-4-yl)pyrrolo[2,1-f][1,2,4]triazin-5-yl)phenyl)-5-cyano-6-(ethoxymethyl)-2-oxo-1-phenyl-1,2-dihydropyridine-3-carboxamide]
pIC50 (phosphor-Axl): ≥ 8.30
pIC50 (Tyro3): < 7.00

Nc1ncnn2c(C3CCN(CCO)CC3)cc(-c3ccc(NC(=O)c4cc5c(n(-c6ccc(F)cc6)c4=O)CCCC5=O)cc3)c12 [Example 59, N-(4-{4-Amino-7-[1-(2-hydroxyethyl)piperidin-4-yl]pyrrolo[2,1-f][1,2,4]triazin-5-yl}phenyl)-1-(4-fluorophenyl)-2,5-dioxo-1,2,5,6,7,8-hexahydroquinoline-3-carboxamide]
pIC50 (phosphor-Axl): ≥ 8.30
pIC50 (Tyro3): < 7.00

CC(C)n1cc(C(=O)Nc2ccc(-c3cc(CN4CCOCC4)n4ncnc(N)c34)cc2)c(=O)n(-c2ccccc2)c1=O [Example 95, N-(4-(4-Amino-7-(morpholinomethyl)pyrrolo[1,2-f][1,2,4]triazin-5-yl)phenyl)-1-isopropyl-2,4-dioxo-3-phenyl-1,2,3,4-tetrahydropyrimidine-5-carboxamide]
pIC50 (phosphor-Axl): ≥ 8.30
pIC50 (Tyro3): < 7.00

CCn1cc(C(=O)Nc2ccc(-c3cc(C4CCN(C(=O)C(C)C)CC4)n4ncnc(N)c34)cc2)c(=O)n(-c2cccc(F)c2)c1=O [Example 73, N-(4-(4-Amino-7-(1-isobutyrylpiperidin-4-yl)pyrrolo[1,2-f][1,2,4]triazin-5-yl)phenyl)-1-ethyl-3-(3-fluorophenyl)-2,4-dioxo-1,2,3,4-tetrahydropyrimidine-5-carboxamide]
pIC50 (phosphor-Axl): ≥ 8.30
pIC50 (Tyro3): < 7.00

CCN(C)C(=O)N1CCC(c2cc(-c3ccc(NC(=O)c4cc5c(n(-c6ccc(F)cc6)c4=O)CCCC5=O)cc3F)c3c(N)ncnn23)CC1 [Example 58, N-{4-[4-Amino-7-(1-{[ethyl(methyl)amino]carbonyl}piperidin-4-yl)pyrrolo[2,1-f][1,2,4]triazin-5-yl]-3-fluorophenyl}-1-(4-fluorophenyl)-2,5-dioxo-1,2,5,6,7,8-hexahydroquinoline-3-carboxamide]
pIC50 (phosphor-Axl): ≥ 8.30
pIC50 (Tyro3): < 7.00

CC(C)C(=O)N1CCC(c2cc(-c3ccc(NC(=O)c4cn(C5CC5)c(=O)n(-c5cccnc5)c4=O)cc3)c3c(N)ncnn23)CC1 [Example 140, N-(4-(4-Amino-7-(1-isobutyrylpiperidin-4-yl)pyrrolo[2,1-f][1,2,4]triazin-5-yl)phenyl)-1-cyclopropyl-2,4-dioxo-3-(pyridin-3-yl)-1,2,3,4-tetrahydropyrimidine-5-carboxamide]
pIC50 (phosphor-Axl): ≥ 8.30
pIC50 (Tyro3): < 7.00

CC(C)C(=O)N1CCC(c2cc(-c3ccc(NC(=O)c4cn(C(C)C)c(=O)n(-c5cccc(C#N)c5)c4=O)cc3)c3c(N)ncnn23)CC1 [Example 91, N-(4-(4-Amino-7-(1-isobutyrylpiperidin-4-yl)pyrrolo[2,1-f][1,2,4]triazin-5-yl)phenyl)-3-(3-cyanophenyl)-1-isopropyl-2,4-dioxo-1,2,3,4-tetrahydropyrimidine-5-carboxamide]
pIC50 (phosphor-Axl): ≥ 8.30
pIC50 (Tyro3): < 7.00

CCN(C)C(=O)N1CCC(c2cc(-c3ccc(NC(=O)c4cn(C(C)C)c(=O)n(-c5ccccc5F)c4=O)cc3)c3c(N)ncnn23)CC1 [Example 69, N-(4-(4-Amino-7-(1-(ethyl(methyl)carbamoyl)piperidin-4-yl)pyrrolo[1,2-f][1,2,4]triazin-5-yl)phenyl)-3-(2-fluorophenyl)-1-isopropyl-2,4-dioxo-1,2,3,4-tetrahydropyrimidine-5-carboxamide]
pIC50 (phosphor-Axl): ≥ 8.30
pIC50 (Tyro3): < 7.00

CC(C)C(=O)N1CCC(c2cc(-c3ccc(NC(=O)c4cn(C(C)C)cc(-c5cncc(F)c5)c4=O)cc3)c3c(N)ncnn23)CC1 [Example 129, N-(4-(4-amino-7-(1-isobutyrylpiperidin-4-yl)pyrrolo[1,2-f][1,2,4]triazin-5-yl)phenyl)-5-(5-fluoropyridin-3-yl)-1-isopropyl-4-oxo-1,4-dihydropyridine-3-carboxamide]
pIC50 (phosphor-Axl): ≥ 8.30
pIC50 (Tyro3): < 7.00

Cc1cccc(-n2c(=O)c(C(=O)Nc3ccc(-c4cc(C5CCN(C(=O)C(C)C)CC5)n5ncnc(N)c45)cc3)cn(C(C)C)c2=O)n1 [Example 149, N-(4-(4-Amino-7-(1-isobutyrylpiperidin-4-yl)pyrrolo[1,2-f][1,2,4]triazin-5-yl)phenyl)-1-isopropyl-3-(6-methylpyridin-2-yl)-2,4-dioxo-1,2,3,4-tetrahydropyrimidine-5-carboxamide]
pIC50 (phosphor-Axl): ≥ 8.30
pIC50 (Tyro3): < 7.00

Cc1c(Cl)cc(C(=O)Nc2ccc(-c3cc(C4CCN(C(=O)C(C)C)CC4)n4ncnc(N)c34)cc2)c(=O)n1-c1ccccn1 [Example 124, N-(4-(4-Amino-7-(1-isobutyrylpiperidin-4-yl)pyrrolo[2,1-f][1,2,4]triazin-5-yl)phenyl)-5-chloro-6-methyl-2-oxo-2H-[1,2′-bipyridine]-3-carboxamide]
pIC50 (phosphor-Axl): ≥ 8.30
pIC50 (Tyro3): < 7.00

Cc1ccc(-c2ccc(C(=O)Nc3ccc(-c4cc(C5CCN(C(=O)C(C)C)CC5)n5ncnc(N)c45)cc3)c(=O)n2-c2ccccc2)cn1 [Example 105, N-(4-(4-Amino-7-(1-isobutyrylpiperidin-4-yl)pyrrolo[2,1-f][1,2,4]triazin-5-yl)phenyl)-6′-methyl-6-oxo-1-phenyl-1,6-dihydro-[2,3′-bipyridine]-5-carboxamide]
pIC50 (phosphor-Axl): ≥ 8.30
